Drawing on paper PMC12070378 (Microbial Biotechnology, 2025), this text covers IC50 for 1 compound.

This assay concerns the target T1, Sortase A (SrtA) (Staphylococcus aureus, UniProt Q2FV99).
T1 sequence (Q2FV99 60-206): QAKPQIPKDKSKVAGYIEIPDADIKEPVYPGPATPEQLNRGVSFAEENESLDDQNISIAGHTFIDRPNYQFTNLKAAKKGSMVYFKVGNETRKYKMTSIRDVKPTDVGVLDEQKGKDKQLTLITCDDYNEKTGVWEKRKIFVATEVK
In words: FRET cleavage assay of Abz-LPATG-Dap. The format is biochemical.

Structures are written as SMILES. pIC50: −log10 of the molar value.

One may read the pIC50 as −log10 of the IC50, conventionally taken in molar units. As for `CC(=O)/C=C/c1ccc(O)c(O)c1` [OSC, osmundacetone], the negative logarithm of the IC50 (pIC50) was 5.14.
